Assay results as given in ChEMBL document CHEMBL2074202, “Biliary excretion of pravastatin in rats: contribution of the excretion pathway mediated by canalicular multispecific organic anion transporter” (Drug Metab Dispos, 1997).

B1: ATP-binding cassette sub-family C member 2 (Rattus norvegicus) (protein)
chain: MDKFCNSTFWDLSLLESPEADLPLCFEQTVLVWIPLGFLWLLAPWQLYSVYRSRTKRSSITKFYLAKQVFVVFLLILAAIDLSLALTEDTGQATVPPVRYTNPILYLCTWLLVLAVQHSRQWCVRKNSWFLSLFWILSVLCGVFQFQTLIRALLKDSKSNMAYSYLFFVSYGFQIVLLILTAFSGPSDSTQTPSVTASFLSSITFSWYDRTVLKGYKHPLTLEDVWDIDEGFKTRSVTSKFEAAMTKDLQKARQAFQRRLQKSQRKPEATLHGLNKKQSQSQDVLVLEEAKKKSEKTTKDYPKSWLIKSLFKTFHVVILKSFILKLIHDLLVFLNPQLLKLLIGFVKSSNSYVWFGYICAILMFAVTLIQSFCLQSYFQHCFVLGMCVRTTVMSSIYKKALTLSNLARKQYTIGETVNLMSVDSQKLMDATNYMQLVWSSVIQITLSIFFLWRELGPSILAGVGVMVLLIPVNGVLATKIRNIQVQNMKNKDKRLKIMNEILSGIKILKYFAWEPSFQEQVQGIRKKELKNLLRFGQLQSLLIFILQITPILVSVVTFSVYVLVDSANVLNAEKAFTSITLFNILRFPLSMLPMVTSSILQASVSVDRLERYLGGDDLDTSAIRRVSNFDKAVKFSEASFTWDPDLEATIQDVNLDIKPGQLVAVVGTVGSGKSSLVSAMLGEMENVHGHITIQGSTAYVPQQSWIQNGTIKDNILFGSEYNEKKYQQVLKACALLPDLEILPGGDMAEIGEKGINLSGGQKQRVSLARAAYQDADIYILDDPLSAVDAHVGKHIFNKVVGPNGLLAGKTRIFVTHGIHFLPQVDEIVVLGKGTILEKGSYRDLLDKKGVFARNWKTFMKHSGPEGEATVNNDSEAEDDDDGLIPTMEEIPEDAASLAMRRENSLRRTLSRSSRSSSRRGKSLKNSLKIKNVNVLKEKEKEVEGQKLIKKEFVETGKVKFSIYLKYLQAVGWWSILFIILFYGLNNVAFIGSNLWLSAWTSDSDNLNGTNNSSSHRDMRIGVFGALGLAQGICLLISTLWSIYACRNASKALHGQLLTNILRAPMRFFDTTPTGRIVNRFSGDISTVDDLLPQTLRSWMMCFFGIAGTLVMICMATPVFAIIIIPLSILYISVQVFYVATSRQLRRLDSVTKSPIYSHFSETVTGLPIIRAFEHQQRFLAWNEKQIDINQKCVFSWITSNRWLAIRLELVGNLVVFCSALLLVIYRKTLTGDVVGFVLSNALNITQTLNWLVRMTSEAETNIVAVERISEYINVENEAPWVTDKRPPADWPRHGEIQFNNYQVRYRPELDLVLKGITCNIKSGEKVGVVGRTGAGKSSLTNCLFRILESAGGQIIIDGIDVASIGLHDLRERLTIIPQDPILFSGSLRMNLDPFNKYSDEEVWRALELAHLRSFVSGLQLGLLSEVTEGGDNLSIGQRQLLCLGRAVLRKSKILVLDEATAAVDLETDSLIQTTIRKEFSQCTVITIAHRLHTIMDSDKIMVLDNGKIVEYGSPEELLSNRGSFYLMAKEAGIENVNHTEL

What was measured:
[1] = target: ATP-binding cassette sub-family C member 2 (Rattus norvegicus, UniProt Q63120); assay: TP_TRANSPORTER: inhibition of DNP-SG uptake in bile canalicular membrane vesicles from SD rat; assay type: functional, cell membranes, Sprague-Dawley, Bile canalicular membrane vesicle
[2] = substrate: CC[C@H](C)C(=O)O[C@H]1C[C@H](O)C=C2C=C[C@H](C)[C@H](CC[C@@H](O)C[C@@H](O)CC(=O)O)[C@H]21; assay: TP_TRANSPORTER: uptake in bile canalicular membrane vesicles from SD rat; assay type: functional, cell membranes, Sprague-Dawley, Bile canalicular membrane vesicle

Molecule | Ki [1] [µM] | Km [2] [µM]
CC[C@H](C)C(=O)O[C@H]1C[C@H](O)C=C2C=C[C@H](C)[C@H](CC[C@@H](O)C[C@@H](O)CC(=O)O)[C@H]21 [PRAVASTATIN] | 172 | 
B1 |  | 223
